Reference: patent publication US11753445B2, “Therapeutic peptides” (COHBAR, INC., priority 2016, dated 2023)
Marks after values point to notes of the source that are not given here. Ends that are not written are not given here.

Columns and labels:
[1] = system: Diet Induced Obese (DIO) mice; assay: Body weight and fat mass in Diet Induced Obese mice, 21-day study (Example 7); format: in vivo, Male C57BL/6 mice; conditions: male DIO mice, Mean (SD)
Description: Male C57BL/6 mice were maintained on a high fat diet for 12 to 22 weeks to develop diet induced obesity. Animals were randomized to treatment groups based on blood glucose levels and body weight. The peptides (SEQ ID No: 208 and SEQ ID NO: 210) were each administered to a group of male DIO mice twice daily by appropriate routes at a dose of 15 mg/kg/dose for 21 days (N=8 to 12 animals per treatment group). […] Metabolic parameters including body weight, blood glucose levels and food intake were monitored. Body mass distribution (fat vs lean) was determined where appropriate by quantitative whole body NMR prior to dosing and at the end of dosing.

[2] = system: STAM Mouse Model of Non-alcoholic Steatohepatitis (NASH); assay: NAFLD activity score in STAM mouse model of NASH (Example 18); format: in vivo, C57/BL6 mice; conditions: male STAM mice, N = 8, Mean (SD)
Description: In the STAM® model of NASH, C57/BL6 mice were injected with a single subcutaneous dose of 200 μg […], two days after birth to destroy pancreatic j-cells. At the age of 4 weeks, animals were put on a high fat diet (57% kcal from fat) and maintained on the same diet throughout the study. […] Beginning at 6 weeks of age, groups of STAM animals (8 animals per group) were treated with the peptides of the present invention administered twice daily by intraperitoneal injection, until study termination. A control group of STAM animals (n=8) received daily doses of telmisartan control compound (10 mg/kg). An additional group of normal mice (n=8) received no treatment. After 21 days of dosing, at 9 weeks of age, metabolic parameters were determined and animals were sacrificed. Liver samples were obtained and fixed, embedded in paraffin, stained with hematoxylin and eosin, and examined by light microscopy. The extent of steatosis and the non-alcoholic fatty liver disease (NAFLD) activity score (NAS) were determined histopathologically according to methods known in the art.

[3] = system: Diet Induced Obese (DIO) mice; assay: Serum triglycerides and enzyme markers of liver damage in DIO mice, 21 days (Example 9); format: in vivo, Male C57BL/6 mice; conditions: male DIO mice; for reduction in serum ALT compared to liraglutide or vehicle alone / reduction in serum AST compared to liraglutide or vehicle alone / reduction in serum triglycerides compared to liraglutide or vehicle alone: 21 days twice daily 15 mg/kg/dose; for ALT (U/L), mean concentration in serum / AST (U/L), mean concentration in serum / Triglycerides (mg/dL), mean concentration in serum: 21 days twice daily IP 15 mg/kg/dose, serum 2 hours after first dose on Day 21
Description: Male C57BL/6 mice were maintained on a high fat diet for 12 to 22 weeks to develop diet induced obesity. Animals were randomized to treatment groups based on blood glucose levels and body weight. The peptides (SEQ ID No: 208, and SEQ ID NO: 210) were each administered to a group of male DIG mice twice daily by appropriate routes at a dose of 15 mg/kg/dose for 21 days (N=8 to 12 animals per treatment group). […] Serum samples were obtained at termination 2 hours after the first dose on Day 21. Samples were analyzed for standard clinical chemistry parameters by methods well known in the art.

[4] = system: STAM Mouse Model of Non-alcoholic Steatohepatitis (NASH); assay: Liver triglyceride and plasma ALT levels in STAM mouse model of NASH (Example 19); format: in vivo, C57/BL6 mice; conditions: male STAM mice, N = 8, Mean (SD)
Description: In the STAM® model of NASH, C57/BL6 mice were injected with a single subcutaneous dose of 200 μg […], two days after birth to destroy pancreatic j-cells. At the age of 4 weeks, animals were put on a high fat diet (57% kcal from fat) and maintained on the same diet throughout the study. […] […] A control group of STAM animals (n=8) received daily doses of telmisartan control compound (10 mg/kg). An additional group of normal mice (n=8) received no treatment. After 21 days of dosing, at 9 weeks of age, metabolic parameters were determined and animals were sacrificed. Liver triglyceride levels were determined by homogenization in chloroform-methanol and incubation overnight at room temperature. After washing with chloroform-methanol-water, the extracts were evaporated to dryness and dissolved in isopropanol. Liver triglyceride content was then measured by Triglyceride E-test (Wako, Japan). Plasma ALT levels were determined by using Fuji Dri-Chem 7000 (Fujifilm, Japan).

[5] = system: Diet Induced Obese (DIO) mice; assay: Body weight and fat mass in Diet Induced Obese mice, 10 days (Example 20); format: in vivo, Male C57BL/6 mice; conditions: male DIO mice, N = 8, Mean (SEM)
Description: Male C57BL/6 mice were maintained on a high fat diet for 18 weeks to develop diet induced obesity. Animals were randomized to treatment groups based on blood glucose levels and body weight. The peptides of the invention were administered to two groups of male DIG mice once or twice daily by intraperitoneal or subcutaneous injection at a doses of 5 to 15 mg/kg/dose for 10 days (N=8 animals per treatment group). An additional group of male DIG mice (n=8) received vehicle (water or saline) alone. Body weight, blood glucose levels and food intake were monitored. Body mass distribution (fat vs lean) was determined by quantitative whole body NMR prior to dosing and at the end of dosing. Administration of the peptides of the invention produced body weight loss and/or decrease in fat mass from baseline values (Table 18).

3T3-L1 Adipocytes [6] = assay: Free fatty acid levels in cultured mouse 3T3-L1 adipocytes, isoproterenol stimulated (Example 2); format: cell-based; conditions: test peptides 25 μM; isoproterenol 1 nM
Outline: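 Release of free fatty acids, read at 540 nm, was stimulated with 1 nM isoproterenol for 3 h in mouse 3T3-L1 adipocytes (12–17 days of differentiation). Cells were pre-exposed to 25 μM peptide for 18–20 h plus 1 h, with peptide kept in during stimulation. Values are background-subtracted and normalised to isoproterenol alone.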

[7] = Stability in mouse plasma, peptides 10 uM (Example 15); format: in vitro ADME; conditions: mouse plasma 37° C., peptide 10 uM
Description: Peptides (10 uM) were incubated in pooled mouse plasma at 37° C. and samples were removed and immediately analyzed for the concentration of intact peptide by LC/MS/MS over the course of 3 hours. The percent of peptide remaining in plasma at each time point was calculated relative to the initial peak area (Table 13).

3T3-L1 Adipocytes [8] = assay: Free fatty acid levels in cultured mouse 3T3-L1 adipocytes, isoproterenol stimulated (Example 17); format: cell-based; conditions: Peptide Concentration 25 μM; isoproterenol 1 nM
Description: Mouse 3T3-L1 cells were seeded at a density between 1,000-20,000 cells per well on 96-well, 48-well, or 24-well plates in Pre-adipocyte Medium (Zen-Bio, Durham, N.C.) and grown to confluence at 37° C. in a humidified atmosphere of 5% CO2/95% air. Two days after confluence, cells were placed in Adipocyte Differentiation Medium (Zen-Bio, Durham, N.C.) and cultured for three additional days at 37° C. in a humidified atmosphere of 5% CO2/95% air. The culture media was then replaced with Adipocyte Maintenance Medium (Zen-Bio) and the cells were maintained for an additional 9-14 days at 37° C. in a humidified atmosphere of 5% CO2/95% air with partial medium replacement every other day. Following 12-17 days of differentiation, test peptides were added at a final concentration of 25-50 μM and incubated for 18-20 hours in Adipocyte Maintenance Medium at 37° C. in a humidified atmosphere of 5% CO2/95%. After the media incubation, media was removed and exchanged with Assay Buffer (Zen-Bio) containing isoproterenol (1 nM) (added to all samples except untreated controls) and the test peptides. Cells were incubated for a further 3 hours at 37° C. in a humidified atmosphere of 5% CO2/95%. Free fatty acid concentrations in the media were determined using a Free Fatty Acid Assay Kit (Zen-Bio) according to the manufacturer's instructions using a plate reader (540 nm).
Absorbance values were corrected for untreated background and expressed relative to isoproterenol treated cells. Treatment with isoproterenol (1 nM) alone was used as the free fatty acid level stimulatory control. The relative standard deviation of the isoproterenol control was <10%. […] Free fatty acid levels for insulin (100 nM) treatment were <5% of the isoproterenol control value.

[9] = 21 days twice daily IP 15 mg/kg/dose
[10] = 21 days IP BID 15 mg/kg/dose beginning at 6 weeks of age
[11] = 10 days twice daily intraperitoneal 15 mg/kg
[12] = 10 days once daily administration 15 mg/kg

In the case of “H-MRWQEMGYIFYPRKLR-OH [SEQ ID NO: 2, reference compound]”, the “Decrease from Baseline in Body Weight (%)” value (from here on “Decrease from Baseline … (%)”) [1, 9] is reported as −9.3 (5.0) %.
With H-MRWQEMNYIFYPR-OH [SEQ ID NO: 208] the “Decrease from Baseline … (%)” value [1, 9] was −17.2 (3.0) %, the “Decrease from Baseline in Fat Mass (g)” value [1, 9] was −6.4 (0.5) g and the “NAFLD Activity Score (NAS)” value [2, 10] was 3.7 (0.5)*. For the same compound, the “reduction in serum ALT compared to liraglutide or vehicle alone” value [3] was “greater reduction”, the “reduction in serum AST compared to liraglutide or vehicle alone” value [3] was “greater reduction” and the “reduction in serum triglycerides compared to liraglutide or vehicle alone” value [3] was “greater reduction”. The “ALT (U/L), mean concentration in serum” value [3] was 40.4 U/L, the “AST (U/L), mean concentration in serum” value [3] was 70.0 U/L and the “Triglycerides (mg/dL), mean concentration in serum” value [3] was 76.0 mg/dL. The “Liver Triglyceride Levels (mg/g liver)” value [4, 10] was 35.3 (15.1)* mg/g liver and the “Plasma ALT (U/L)” value [4, 10] was 43 (16)* U/L.
With `CCCc1nc2c(C)cc(-c3nc4ccccc4n3C)cc2n1Cc1ccc(-c2ccccc2C(=O)O)cc1` [Telmisartan, telmisartan, reference compound] the “NAFLD Activity Score (NAS)” value ([2]; 21 days PO QD 10 mg/kg/dose beginning at 6 weeks of age) was 2.6 (0.5)*, the “Liver Triglyceride Levels (mg/g liver)” value ([4]; 21 days PO BID 10 mg/kg) was 18.8 (5.8)* mg/g liver and the “Plasma ALT (U/L)” value ([4]; 21 days PO BID 10 mg/kg) was 39 (6)* U/L.
For H-RWQEMNYIFYPR-OH [SEQ ID NO: 210], the “Decrease from Baseline … (%)” value [1, 9] was −14.1 (4.8) %, the “NAFLD Activity Score (NAS)” value [2, 10] was 3.3 (1.1)* and the “reduction in serum ALT compared to liraglutide or vehicle alone” value [3] was “greater reduction”. For the same compound, the “reduction in serum AST compared to liraglutide or vehicle alone” value [3] was “greater reduction”, the “reduction in serum triglycerides compared to liraglutide or vehicle alone” value [3] was “greater reduction” and the “ALT (U/L), mean concentration in serum” value [3] was 45.0 U/L. For the same compound, the “AST (U/L), mean concentration in serum” value [3] was 125 U/L, the “Triglycerides (mg/dL), mean concentration in serum” value [3] was 93.0 mg/dL and the “Liver Triglyceride Levels (mg/g liver)” value [4, 10] was 43.6 (9.3)* mg/g liver. For the same compound, the “Plasma ALT (U/L)” value [4, 10] was 37 (13)* U/L.
For H-RWQEMNYIFYP-OH [compound 283], the “Decrease from Baseline … (%)” value [5, 11] was −5.5 (0.4) %, the “Decrease from Baseline in Fat Mass (g)” value [5, 11] was −3.0 (0.2) g and the “Free Fatty Acid Levels in 3T3-L1 Adipocytes Expressed as a Percent of Isoproterenol Control: Percent of Control Value” (3T3-L1 Adipocytes [6]) was 90.8%. The “% Remaining at Each Time Point: 0 min” value ([7]; 0 min) was 100%, the remaining at 0.25 h, 10 uM ([7]; pooled mouse plasma, 15 min, read-out: % Remaining at Each Time Point: 15 min) was 54.3% and the remaining at 0.5 h, 10 uM ([7]; pooled mouse plasma, 30 min, read-out: % Remaining at Each Time Point: 30 min) was 25.8%. For the same compound, the remaining at 1 h, 10 uM ([7]; pooled mouse plasma, 60 min, read-out: % Remaining at Each Time Point: 60 min) was 2.05%, the remaining at 2 h, 10 uM ([7]; pooled mouse plasma, 120 min, read-out: % Remaining at Each Time Point: 120 min) was 0.35% and the remaining at 3 h, 10 uM ([7]; pooled mouse plasma, 180 min, read-out: % Remaining at Each Time Point: 180 min) was 0.14%.
For `CCc1ccc(CCOc2ccc(CC3SC(=O)NC3=O)cc2)nc1` (stereo not shown) [Pioglitazone, pioglitazone, reference compound], the “Decrease from Baseline … (%)” value ([1]; 21 days twice daily PO 15 mg/kg/dose) was 1.0 (3.1) %.
For H-NYIFYPR-OH [compound 361], the “Decrease from Baseline … (%)” value [5, 11] was −5.8 (0.8) %, the “Decrease from Baseline in Fat Mass (g)” value [5, 11] was −3.8 (0.5) g and the “Free Fatty Acid Levels in 3T3-L1 Adipocytes Expressed as a Percent of Isoproterenol Control: Percent of Control Value” (3T3-L1 Adipocytes [8]) was 76.3%.
In the case of H-EMNYIFYPR-OH [compound 364], the “Decrease from Baseline … (%)” value [5, 11] is reported as −6.6 (1.6) %, the “Decrease from Baseline in Fat Mass (g)” value [5, 11] is reported as −3.7 (1.2) g and the “Free Fatty Acid Levels in 3T3-L1 Adipocytes Expressed as a Percent of Isoproterenol Control: Percent of Control Value” (3T3-L1 Adipocytes [8]) is reported as 87.2%.
In the case of “357 (PEG600-KRWQEMNYIFYPR) [compound 357]”, the “Decrease from Baseline … (%)” value [5, 12] is reported as −1.2 (0.6) %, the “Decrease from Baseline in Fat Mass (g)” value [5, 12] is reported as −0.2 (0.2) g and the “Decrease from Baseline … (%)” value [5, 11] is reported as −3.4 (1.0) %. The “Decrease from Baseline in Fat Mass (g)” value [5, 11] was −1.0 (0.4) g and the “Free Fatty Acid Levels in 3T3-L1 Adipocytes Expressed as a Percent of Isoproterenol Control: Percent of Control Value” (3T3-L1 Adipocytes [8]) was 30.8%.
